Patent publication US9144569B2, “Methods of administering an aromatase inhibitor, prostaglandin and GnRH for regulating ovulation in cattle” (UNIVERSITY OF SASKATCHEWAN, priority 2010, dated 2015)
Where two headings read alike, the source gives them in different places.

Assay: Example I: plasma letrozole concentration (LC/MS/MS) and non-compartmental pharmacokinetics after single iv dose
Assay type: in vivo, cattle
Details: for AUC(0-t): read-out: Area under the curve (AUClast); for Cmax: read-out: Maximal concentration (Cmax); for clearance: read-out: Systemic clearance (Cls) (converted); for half-life: read-out: Half-life (T1/2) (converted); for MRT: read-out: Mean residence time (MRT)
Experimental: Heifers in which a CL was detected during the initial examination were given […] cloprostenol (PGF, Estrumate™, Schering-Plough Animal Health, Pointe-Claire, QC, Canada) intramuscularly (im) to induce regression of the CL and to synchronize ovulation. Heifers were examined daily by transrectal ultrasonography to detect ovulation. Transvaginal ultrasound-guided follicular aspiration of follicles ≧5 mm was performed five to eight days after ovulation to synchronize wave emergence. Heifers were examined daily by transrectal ultrasonography to detect follicular wave emergence, which was expected 1 to 1.5 days after follicular ablation. Four days after follicular ablation (approximately 2.5 days after follicular wave emergence), and at the time follicular dominance becomes apparent, heifers were assigned randomly to the following treatment groups and given a single intravenous dose of 1) 500 μg/kg of letrozole (high dose group, n=9), 2) 250 μg/kg of letrozole (medium dose group, n=10), 3) 125 μg/kg of letrozole (low dose group, n=10), or 4) 20 ml of phosphate buffered saline (PBS control group, n=10). For practical purposes, the dose of letrozole was calculated based on an average weight of 400 kg for all heifers. The average oral dose used in women (2.5-5 mg per day for 5 days) was used to estimate the medium dose for cattle. The high and low doses were set as double and half the medium dose, respectively. The day of treatment was defined as Day 0. For intravenous injection, letrozole was prepared in 95% ethanol at a final concentration of 5 mg per ml, resulting in an injection volume of 10-40 ml. The experiment was performed in four replicates (n=2-3 per group per replicate) and each heifer was used only once.
Blood samples were collected by jugular or coccygeal venipuncture into 10 ml heparinized vacuum tubes (Becton Dickinson Vacutainer Systems, Franklin Lakes, N.J., USA). Blood samples were collected at 0, 0.25, 0.5, 1, 1.5, 2, 3, 4, 6, 8, 12, 24, 36, 48 hours post-treatment using an indwelling jugular catheter as previously described and daily thereafter to the first post-treatment ovulation. Blood samples were centrifuged at 1500×g for 20 minutes; plasma was separated and stored in plastic tubes at −20° C.
Plasma concentrations of letrozole were determined using high performance liquid chromatography tandem mass spectrometry (LC/MS/MS). To extract letrozole from the samples, 250 μL of a buffer solution (0.1M ammonium) were added to 250 μL of plasma followed by the addition of 5 mL of methyl t-butyl ether (MTBE) and vortexed for 15 seconds. The organic layer was removed by pipetting and transferred to a fresh 15 mL plastic tube. This second tube was dried by gentle nitrogen gas flow. The dried extract was reconstituted in 1 mL of 100% ethanol, sonicated for 5 minutes and transferred to a labelled vial for further analysis. Separation was accomplished by HPLC (Agilent 1200, Santa Clara, Calif., USA) fitted with an analytical column (50×2.1 mm, 3 μm particle size; Thermo Scientific Betasil C18, Waltham, Mass., USA) operated at 35° C. Gradient conditions were used at a flow rate of 250 μL/min, starting at 85% A (0.1% acetic acid) and 15% B (0.1% acetic acid in acetonitrile). Initial conditions were held for 2 min and then ramped to 100% B at 6 min, held until 9 min, decreased to 0% B at 11 minutes, and returned to initial conditions at 13 minutes, and held constant until 15 minutes. Mass spectra were collected using a tandem mass spectrometer (Applied Bioscience SCIEX 3000, Foster City, Calif., USA) fitted with an electrospray ionization source, operated in the negative ionization mode. Chromatograms were recorded using multiple reaction monitoring (MRM) mode, where at least two transitions per-analyte were monitored. […]

[1] = female, bovine, plasma, 125 ug/kg, 125 μg/kg single iv, n=9
[2] = female, bovine, plasma, 250 ug/kg, 250 μg/kg single iv, n=9
[3] = female, bovine, plasma, 500 ug/kg, 500 μg/kg single iv, n=9
[4] = female, bovine, plasma, iv, 125 ug/kg, 125 μg/kg single iv, n=9
[5] = female, bovine, plasma, iv, 250 ug/kg, 250 μg/kg single iv, n=9
[6] = female, bovine, plasma, iv, 500 ug/kg, 500 μg/kg single iv, n=9
[7] = female, bovine, plasma, iv, doses combined

In the case of `N#Cc1ccc(C(c2ccc(C#N)cc2)n2cncn2)cc1` [Letrozole, letrozole], the “mean circulating level of letrozole during the first 96 hours” value (250 μg/kg, single application) is reported as 112 ± 16.26 ng/mL, the “Half-life (T1/2)” value (doses combined) is reported as 27.3 ± 0.42 h and the AUC(0-t) [1] is reported as 8800 ± 720 ng·h/mL. For the same molecule, the Cmax [1] was 1200 ± 250 ng/mL, the clearance [1] was 0.243 mL/min/kg and the AUC(0-t) [2] was 17300 ± 2000 ng·h/mL. It also gave a Cmax [2] of 1700 ± 180 ng/mL, a clearance [2] of 0.258 mL/min/kg and an AUC(0-t) [3] of 28100 ± 2150 ng·h/mL. For the same molecule, the Cmax [3] was 2500 ± 370 ng/mL, the clearance [3] was 0.308 mL/min/kg and the concentration at 96 hours (female, bovine, plasma, intravenous, 250 μg/kg given in a single dose, read-out: mean concentration of letrozole in the circulation at 96 hours) was 43.7 ± 8.79 ng/mL. For the same molecule, the half-life [4] was 26.9 ± 0.95 h, the MRT [4] was 31.7 ± 2 h and the half-life [5] was 26.6 ± 1.18 h. It also gave an MRT [5] of 33.7 ± 2.98 h, a half-life [6] of 28.5 ± 1.05 h and an MRT [6] of 35.8 ± 1.43 h. It also gave an AUC(0-t) [7] of 18200 ± 4030 ng·h/mL, a half-life [7] of 27 h and a Cmax [7] of 1800 ± 270 ng/mL. For the same molecule, the MRT [7] was 34 h, the clearance [7] was 0.27 mL/min/kg and the “mean plasma letrozole concentration throughout the 8-day period” value (high dose 500 μg/kg iv) was 0.63 ± 0.04 µg/mL. For the same molecule, the “mean plasma letrozole concentration throughout the 8-day period” value (low dose 125 μg/kg iv) was 0.27 ± 0.04 µg/mL and the “mean plasma letrozole concentration throughout the 8-day period” value (medium dose 250 μg/kg iv) was 0.44 ± 0.04 µg/mL.
